Non-standard residues stand in square brackets, D forms with d. Residues, ends and D or L forms follow the SMILES beside them. *: point of attachment. Sta = CC(C)C[C@H](N)[C@@H](O)CC(=O)O; Isovaleryl = CC(C)CC(=O)*
Tested on: human liver microsomes, metabolic stability half-life
Assay: NCATS Human Liver Microsomal (HLM) Stability Profiling
Settings: higher = more stable; screened at 1 µM (by protocol)
How it was run: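 Half-life derived from parent loss over 0–60 min (0, 5, 10, 15, 30, 60 min) at 37 °C. Incubations: 0.5 mg/mL microsomes, 1 µM test article, NADPH regeneration, pH 7.4 phosphate; quenched in acetonitrile containing albendazole, analysed by MS.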

O=C(CO)N1CCC(c2[nH]nc(-c3ccc(Cl)cc3)c2-c2ccncn2)CC1 and Fc1ccc(-c2nc(C3CCNCC3)sc2-c2ccnc(NC3CC3)n2)cc1 cannot be ordered by half-life: greater than 120 min for the first, greater than 120 min for the second.

Compared with COc1ccc2c(c1)CCCC2=O, COc1cccc(C(=O)Nc2ccc3ncnc(N4CCCCC4)c3c2)c1 is 3.5-fold lower in half-life: 17.6 min for the first, 5.03 min for the second.

Compared with Oc1cccc(C2NC(=S)Nc3cccc(F)c32)c1 (centres undefined), O=C1NC(=Nc2ccccc2F)S/C1=C\c1ccc(C(=O)O)cc1 is lower in half-life: greater than 120 min for the first, 52.4 min for the second.

Going from COc1ccc(-c2cn3cccnc3n2)cc1NC(=O)c1cc(C)cc(C)c1 to COc1ccc(NC(=O)Cn2ccn(-c3ccc(C)c(C)c3)c(=O)c2=O)cc1Cl, the half-life rises from 20.7 min to greater than 120 min.

COCC1(CO)C(=O)C2CCN1CC2 (centres undefined) and CCN1CCCC1=O cannot be ordered by half-life: greater than 120 min for the first, greater than 120 min for the second.

Going from Oc1cccc(O)c1O to Cc1cccc(C)c1OCC(C)N (centres undefined), the half-life falls from greater than 120 min to 114 min.

Compared with O=[N+]([O-])c1cccc(S(=O)(=O)NCCNS(=O)(=O)c2cccc([N+](=O)[O-])c2)c1, O=C(C=Cc1cccc(S(=O)(=O)Nc2ccccc2)c1)NO is higher in half-life: 52.3 min for the first, greater than 120 min for the second.

Compared with CCCCNc1c(C(=O)OCC)c(C)nc2c1cnn2CC, CCCCNC(=O)NS(=O)(=O)c1ccc(C)cc1 is 20-fold higher in half-life: 5.85 min for the first, 115 min for the second.

First: COc1ccc(NC(=O)Cn2cc(C(=O)c3cccs3)c3ccccc32)cc1
Second: CC(C)c1ccc(NC(=O)C(c2ccccc2)N(C)C(=O)Cc2c[nH]c3ccccc23)cc1 (centres undefined)
The half-life of the first is 2.2-fold higher: 16.6 min for the first, 7.38 min for the second.

Going from CCOc1ccccc1OCCN[C@H](C)Cc1ccc(OC)c(S(N)(=O)=O)c1 to CC(Cc1cccc(C(F)(F)F)c1)NCCOC(=O)c1ccccc1 (centres undefined), the half-life falls from greater than 120 min to 0.84 min.

Going from CCOCCCNC(=O)CCC(=O)NNc1nc2ccccc2c2nc(-c3ccccc3)nn12 to Cc1nn(CC(=O)NCCc2ccccc2)c(=O)c2c1sc1ccccc12, the half-life falls from 88 min to 6.82 min (13-fold).

N[C@@H](CC(=O)Nc1ccc(Oc2cc(F)c(F)cc2Br)cc1)C(=O)O and CCOc1ccc(NC(=O)CC(C)O)cc1 (centres undefined) cannot be ordered by half-life: greater than 120 min for the first, greater than 120 min for the second.

C1COC(NC(C2CC2)C2CC2)=N1 and c1cc2c(c(N3CCNCC3)c1)OCCO2 cannot be ordered by half-life: greater than 120 min for the first, greater than 120 min for the second.

Compared with COC(=O)N[C@@H](C)CNc1nccc(-c2cn(C(C)C)nc2-c2cc(Cl)cc(NS(C)(=O)=O)c2F)n1, CC(C)(C)c1ccc(S(=O)(=O)c2cnc(SCC(=O)Nc3ccc(F)c(Cl)c3)[nH]c2=O)cc1 is 2.1-fold higher in half-life: 34.4 min for the first, 73.1 min for the second.

Going from NC1CCC(Nc2cc(-c3cccc(NCc4cccc(F)c4)n3)c(Cl)cn2)CC1 (centres undefined) to N#Cc1cnc2cnc(NCc3cccnc3)cc2c1Nc1ccc(F)c(Cl)c1, the half-life falls from greater than 120 min to 12.4 min.

First: Cc1ccc2c(c1)C(=O)[C@]1(O)CCN(c3ccccc3)C1=N2
Second: N#Cc1cccc(C(=O)Nc2cc(-c3ccccc3)nn2-c2ccccc2)c1
The half-life of the first is 11-fold lower: 1.71 min for the first, 18.7 min for the second.

Compared with NS(=O)(=O)c1cc2c(cc1Cl)NC(CSCc1ccccc1)=NS2(=O)=O, CC(Cc1ccccc1)(NC(=O)CN)c1ccccc1 (centres undefined) is higher in half-life: 29.2 min for the first, greater than 120 min for the second.

Going from COc1cc2nc(=NC(=O)c3cccnc3)n3c(c2cc1OC)NCC3 to COc1cc2cc(CN3CCC(N(C)C)C3)c(-c3cccc(Cl)c3)nc2cc1OC (centres undefined), the half-life rises from 45 min to greater than 120 min.

First: CC(C)(C)c1ccc(C(=O)Nc2cc(Cl)c(Br)cc2C(=O)O)cc1
Second: Cc1ccccc1C(=O)Nc1ccc(C(=O)N2CCCC(O)c3cc(Cl)ccc32)c(C)c1 (centres undefined)
The half-life of the first is 2.3-fold lower: 6.17 min for the first, 13.9 min for the second.

Going from CCOP(=S)(OCC)Oc1nc(Cl)c(Cl)cc1Cl to Cc1nc(N)nc(N)c1-c1ccc(Cl)c(Cl)c1, the half-life rises from 1.81 min to greater than 120 min.

Going from C[C@@]1(c2cc(-c3cncnc3)c(F)cc2F)CCSC(N)=N1 to C=C1CCN([C@H](C)[C@](O)(Cn2cncn2)c2ccc(F)cc2F)CC1, the half-life falls from greater than 120 min to 10 min.

Going from CCCCC(CC)CN=C(N)NC(N)=NCCCCCCN=C(N)NC(N)=NCC(CC)CCCC (centres undefined) to CCCCN(CCCC)C(=O)CN1C[C@H](c2ccc3c(c2)OCO3)[C@@H](C(=O)O)[C@@H]1c1ccc(OC)cc1, the half-life falls from greater than 120 min to 72.6 min.

Compared with O=C(O)c1ccc(Nc2ncc3c(n2)-c2ccc(Cl)cc2C(c2c(F)cccc2F)=NC3)cc1, N#Cc1ccc(C(=O)Nc2ccc(Cl)c(-c3nc4cc(Cl)ccc4o3)c2)c(F)c1 is 3-fold lower in half-life: 46.9 min for the first, 15.4 min for the second.

Going from NC(=O)c1cnc(N[C@@H]2CCCC[C@H]2N)nc1Nc1cccc(-n2nccn2)c1 to COc1cc2ncnc(Nc3ccc(F)c(Cl)c3)c2cc1NC(=O)C=CCN1CCCCC1, the half-life rises from 90.7 min to greater than 120 min.

Going from Cc1cccc(/C=N/Nc2cc(N3CCOCC3)n3nc(-c4ccncc4)cc3n2)c1 to Cc1nc(N)ncc1-c1nc(N2CCOCC2)c2sc(C(C)(C)O)cc2n1, the half-life rises from 23.1 min to greater than 120 min.

CC(C)C(Br)C(=O)NC(N)=O (centres undefined) and CC(=O)Nc1nnc(S(N)(=O)=O)s1 cannot be ordered by half-life: greater than 120 min for the first, greater than 120 min for the second.

First: CCCC(CCC)C(=O)Nc1ccn([C@@H]2O[C@H](CO)[C@@H](O)C2(F)F)c(=O)n1
Second: Cc1cn([C@@H]2O[C@H](CO)[C@@H](O)[C@H]2F)c(=O)[nH]c1=O
The half-life of the first is higher: greater than 120 min for the first, 22.1 min for the second.

CCCCCOc1cc2c(cc1-c1cc(/C=C/C(=O)O)ccc1O)C(C)(C)CCC2(C)C and CCCCOCc1cc(CN2CCN(c3cccc(Cl)c3)CC2)c(O)c2ncccc12 are within 1.5-fold of each other in half-life: 10.8 min for the first, 10.3 min for the second.

Cc1ccc(C(=O)N2CCc3cc(CNS(=O)(=O)c4cccs4)ccc32)cc1 and O=C(Nc1cccc(C(F)(F)F)c1)Nc1cc(S(=O)(=O)NC2CC2)ccc1-c1ccsc1 are within 1.5-fold of each other in half-life: 5.17 min for the first, 4.46 min for the second.

CC(C)(CNC(=O)c1cccc(-c2noc(C(F)(F)F)n2)c1)c1coc(-c2ccccc2)n1 and CC(C)c1ccc2oc(-c3ccc(NC(=O)c4cc5ccccc5o4)cc3)nc2c1 are within 1.5-fold of each other in half-life: 33.1 min for the first, 25.3 min for the second.

First: CC(=O)O[C@]1(C(C)=O)CC[C@H]2[C@@H]3C=C(Cl)C4=CC(=O)CC[C@]4(C)[C@H]3CC[C@@]21C
Second: C#C[C@]1(OC(C)=O)CC[C@H]2[C@@H]3CCC4=C/C(=N/O)CC[C@@H]4[C@H]3CC[C@@]21CC
The half-life of the first is 5.9-fold higher: 36.7 min for the first, 6.21 min for the second.

First: COC(=O)c1ccc([C@H]2c3[nH]c4ccccc4c3C[C@H](C(=O)OC)N2C(=O)CCl)cc1
Second: COc1ccc2c(CNCCc3ccccc3OC)c(C(=O)O)n(Cc3ccc(F)cc3Cl)c2c1
The half-life of the first is 4.8-fold higher: 8.55 min for the first, 1.79 min for the second.

CCCc1ccc(C(=O)O)cc1 and CC(=O)N1CCN(c2ccc(O)cc2)CC1 cannot be ordered by half-life: greater than 120 min for the first, greater than 120 min for the second.

Going from Cc1cccc(N2CCN(C(=O)c3cccn3-c3nnc(N4CCCCC4)s3)CC2)c1C to O=c1c(N2CCN(c3cccc(Cl)c3)CC2)csc2ccc(Cl)cc12, the half-life rises from 3.17 min to 12.8 min (4-fold).

Compared with CC(C)CC(=O)N[C@H](C(=O)N[C@H](C(=O)N[C@@H](CC(C)C)[C@@H](O)CC(=O)N[C@@H](C)C(=O)N[C@@H](CC(C)C)[C@@H](O)CC(=O)O)C(C)C)C(C)C (Isovaleryl-VV[Sta]A[Sta]-OH), CCOC(=O)[C@H](CCc1ccccc1)N[C@H]1CS[C@H](c2cccs2)CN(CC(=O)O)C1=O is lower in half-life: greater than 120 min for the first, 6.54 min for the second.

O=C(O)CC1CCC(c2ccc(-c3ccc(Nc4ccc(C(F)(F)F)nc4)cn3)cc2)CC1 (centres undefined) and CNC(=O)c1cc(Oc2ccc(NC(=O)Nc3ccc(Cl)c(C(F)(F)F)c3)cc2)ccn1 cannot be ordered by half-life: greater than 120 min for the first, greater than 120 min for the second.

Compared with O=C(Nc1ncc(-c2cc(C(F)F)nn2-c2c(Cl)cccc2Cl)s1)C1CC1, CC(=O)C1=C(c2ccc(Cl)c(Cl)c2)N(C(C)=O)n2cnnc2S1 is lower in half-life: greater than 120 min for the first, 4.52 min for the second.

CNc1cccc(CCOc2ccc3c(c2)CN(CC(F)(F)F)C(=O)[C@H](CC(=O)O)C3)n1 and CNC(=O)c1ccc(N2C(=S)N(c3cnc(C#N)c(C(F)(F)F)c3)C(=O)C23CCC3)cc1F cannot be ordered by half-life: greater than 120 min for the first, greater than 120 min for the second.

Going from CN1CCC(COc2cnc(-c3cccc(Cn4nc(-c5cccc(C#N)c5)ccc4=O)c3)nc2)CC1 to CC(C)(C)c1ccc(-c2nc3c(N4CCN(Cc5ccc6nccnc6c5)CC4)cccc3[nH]2)cc1, the half-life falls from greater than 120 min to 20.5 min.

Going from Cc1cccc(N(C)C(=S)Oc2ccc3ccccc3c2)c1 to COc1cc(/C=N\NC(=O)c2ccc3c(c2)OCO3)ccc1OCc1ccccc1, the half-life rises from 2.99 min to 23.5 min (7.9-fold).

Compared with COc1ccc(C(CN(C)C)C2(O)CCCCC2)cc1 (centres undefined), NC(=O)C1(N2CCCCC2)CCN(CCCC(=O)c2ccc(F)cc2)CC1 is lower in half-life: greater than 120 min for the first, 101 min for the second.

First: Fc1ccc(CN2CCC(Nc3ccc(C(F)(F)F)nn3)CC2)cc1F
Second: O=C(CCc1nnc2n(Cc3ccc(Cl)cc3)c(=O)c3ccccc3n12)NCCC1=CCCCC1
The half-life of the first is 40-fold higher: 42.3 min for the first, 1.05 min for the second.

Cn1cc(-c2ccc3nnc(Sc4ccc5nn(C)cc5c4)n3n2)cn1 and COc1ccc2nc(S(=O)Cc3ncc(C)c(OC)c3C)[nH]c2c1 (centres undefined) cannot be ordered by half-life: greater than 120 min for the first, greater than 120 min for the second.

Compared with CC(C)=CCC1C(=O)N(c2ccccc2)N(c2ccccc2)C1=O, CCCOC(C(=O)OC1CCN(C)CC1)(c1ccccc1)c1ccccc1 is lower in half-life: greater than 120 min for the first, 11.3 min for the second.

C1Cc2[nH]nc(-c3nn[nH]n3)c2C1 and CC(C)(C)NCC(O)COc1cccc2c1CCC(=O)N2 (centres undefined) cannot be ordered by half-life: greater than 120 min for the first, greater than 120 min for the second.

Compared with CC[C@]1(C2=NCCN2)Cc2ccccc2O1, Cc1ccccc1NC(=O)Nc1cccs1 is lower in half-life: greater than 120 min for the first, 22.8 min for the second.

Compared with O=C(c1ccccn1)N(Cc1cccs1)C1(C(=O)NC2CCCCC2)CCCCC1, CNC(=O)O[C@H]1COc2ccc(N3CCN(C4COC4)CC3)cc2[C@@H]1NC(=O)c1ccc(F)cc1 is higher in half-life: 1.6 min for the first, greater than 120 min for the second.

Compared with COc1cc(Nc2nc3ccccc3nc2NS(=O)(=O)c2cccc(NC(=O)c3ccc(C)c(OC)c3)c2)cc(OC)c1, COC(=O)[C@H](Cc1cccc(C(=N)N)c1)[C@@H](C)NC(=O)c1ccc(-c2cc[n+]([O-])cc2)cc1 is higher in half-life: 14 min for the first, greater than 120 min for the second.

CC1=C2[C@H]3OC(=O)[C@@H](C)[C@@H]3CC[C@@]2(C)C=CC1=O and Cc1c(N2C(=O)[C@@H]3[C@H](O)CCN3C2=O)ccc(C#N)c1Cl cannot be ordered by half-life: greater than 120 min for the first, greater than 120 min for the second.

N#CC1C(=O)Nc2scc(-c3ccc(-c4ccccc4O)cc3)c2C1=O (centres undefined) and COc1ccccc1OC[C@H](O)COC(N)=O cannot be ordered by half-life: greater than 120 min for the first, greater than 120 min for the second.

Compared with CCc1cccc2cc(C(O)CNC(C)(C)C)oc12 (centres undefined), CCC1(O)CC2c3cc(OC)c(OC)cc3CCN2CC1CC(C)C (centres undefined) is higher in half-life: 96.4 min for the first, greater than 120 min for the second.

Going from COc1cc(C(=O)N2CCCCCCC2)cc(OC)c1OC to O[C@@H]1CO[C@H]2[C@@H]1OC[C@@H]2O, the half-life rises from 29.3 min to greater than 120 min.

Reference: PubChem BioAssay AID1963597 (National Center for Advancing Translational Sciences (NCATS), 2024)
